Results taken from US8791267B2, “Biaryl PDE4 inhibitors for treating inflammatory, cardiovascular and CNS disorders” (Decode Genetics EHF, priority 2007, dated 2014).

Legend:
[1] = target: PDE4B (Homo sapiens, UniProt Q07343); test: In-vitro assay for PDE4 enzymes, real-time enzyme-coupled spectrophotometric assay, PDE4B Activity (Table 10); format: biochemical; settings: human PDE4B (hPDE4B), enzyme-coupled spectrophotometric assay; read-out: PDE4B Activity, hPDE4B
[2] = target: PDE4 (Homo sapiens, UniProt Q08499); test: In-vitro assay for PDE4 enzymes, real-time enzyme-coupled spectrophotometric assay (Table 9); format: biochemical; settings: human PDE4D; activity class, Table 9; read-out: hPDE4D
PDE4, sequence (Q08499 whole entry): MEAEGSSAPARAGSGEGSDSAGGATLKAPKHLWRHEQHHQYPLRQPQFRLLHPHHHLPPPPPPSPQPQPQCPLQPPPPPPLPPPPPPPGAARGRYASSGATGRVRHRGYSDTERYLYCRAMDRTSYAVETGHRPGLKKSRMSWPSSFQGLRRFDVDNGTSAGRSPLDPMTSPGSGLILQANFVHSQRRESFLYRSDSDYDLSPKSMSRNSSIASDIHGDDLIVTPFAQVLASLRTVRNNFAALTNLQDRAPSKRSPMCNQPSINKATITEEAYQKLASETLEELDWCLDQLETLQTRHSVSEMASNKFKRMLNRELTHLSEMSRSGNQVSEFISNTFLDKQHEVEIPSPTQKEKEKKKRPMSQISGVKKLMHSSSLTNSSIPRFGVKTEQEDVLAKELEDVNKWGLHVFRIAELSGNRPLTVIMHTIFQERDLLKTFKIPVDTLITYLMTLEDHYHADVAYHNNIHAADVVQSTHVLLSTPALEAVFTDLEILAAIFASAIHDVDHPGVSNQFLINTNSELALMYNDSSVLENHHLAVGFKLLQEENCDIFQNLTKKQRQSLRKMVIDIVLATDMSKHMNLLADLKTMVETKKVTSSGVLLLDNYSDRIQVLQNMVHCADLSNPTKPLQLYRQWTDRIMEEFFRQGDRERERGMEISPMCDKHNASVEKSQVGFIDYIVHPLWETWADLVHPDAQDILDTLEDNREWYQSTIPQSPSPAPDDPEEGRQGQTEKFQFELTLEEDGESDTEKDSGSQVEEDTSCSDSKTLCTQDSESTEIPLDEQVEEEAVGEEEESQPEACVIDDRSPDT

PDE4B, sequence (Q07343 whole entry): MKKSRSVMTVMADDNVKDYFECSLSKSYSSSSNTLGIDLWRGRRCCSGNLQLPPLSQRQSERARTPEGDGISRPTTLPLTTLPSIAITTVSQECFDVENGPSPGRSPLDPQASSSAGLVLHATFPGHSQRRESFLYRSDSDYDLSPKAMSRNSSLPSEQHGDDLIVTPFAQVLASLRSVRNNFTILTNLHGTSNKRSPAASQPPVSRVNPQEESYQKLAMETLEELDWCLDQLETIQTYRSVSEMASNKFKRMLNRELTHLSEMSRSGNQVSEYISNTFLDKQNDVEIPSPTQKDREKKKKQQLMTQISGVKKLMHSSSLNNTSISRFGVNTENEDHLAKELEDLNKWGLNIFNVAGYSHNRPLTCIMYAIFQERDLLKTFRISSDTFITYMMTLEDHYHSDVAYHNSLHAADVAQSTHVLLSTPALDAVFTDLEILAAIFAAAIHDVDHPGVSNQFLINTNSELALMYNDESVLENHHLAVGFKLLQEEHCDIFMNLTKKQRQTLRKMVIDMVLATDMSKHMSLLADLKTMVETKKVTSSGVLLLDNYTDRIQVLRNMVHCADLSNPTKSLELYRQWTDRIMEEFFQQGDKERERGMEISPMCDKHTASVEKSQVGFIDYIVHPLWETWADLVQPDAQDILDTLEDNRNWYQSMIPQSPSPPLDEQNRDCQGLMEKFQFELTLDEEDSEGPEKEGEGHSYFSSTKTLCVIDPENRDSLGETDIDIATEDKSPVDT

Row | IC50 [1] [µM] | IC50 [2] [µM] | SMILES
1 | < 5 | < 5 | COc1ccc(Cc2ccc(F)cc2)c(F)c1-c1cccc([N+](=O)[O-])c1 [P-050]
2 | < 5 | < 5 | COc1ccc(Cc2ccc(N)nc2)c(F)c1-c1cccc(C(C)=O)c1 [P-277, 1-[3′-(6-Amino-pyridin-3-ylmethyl)-2′-fluoro-6′-methoxy-biphenyl-3-yl]-ethanone]
3 | < 5 | < 5 | COc1ccc(COc2ccc(NC(C)=O)cc2)c(F)c1-c1cccc(Cl)c1 [P-594]
4 | < 5 | < 5 | COc1ccc(Cc2ccc3nc(C(N)=O)cn3c2)c(F)c1-c1cccc(Cl)c1 [P-429, 6-(3′-chloro-2-fluoro-6-methoxy-biphenyl-3-ylmethyl)-imidazo[1,2-a]pyridine-2-carboxylic acid amide]
5 | 5 to 20 | < 5 | COc1ccc(Cc2ccc(CNS(C)(=O)=O)c(O)c2)c(F)c1-c1cccc(Cl)c1 [P-299]
6 | < 5 | < 5 | COc1ccc(COc2ccc(N)cc2)c(F)c1-c1cccc(Cl)c1 [P-576]
7 | < 5 | < 5 | COc1ccc(Cc2ccc(CN3CCN(C)C3=O)nc2)c(F)c1-c1cccc(Cl)c1 [P-375, 1-[5-(3′-Chloro-2-fluoro-6-methoxy-biphenyl-3-ylmethyl)-pyridin-2-ylmethyl]-3-methyl-imidazolidin-2-one]
8 | < 5 | < 5 | COc1ccc(Cc2ccc(N(C)C)cc2)c(F)c1-c1cccc(Cl)c1 [P-303, [4-(3′-Chloro-2-fluoro-6-methoxy-biphenyl-3-ylmethyl)-phenyl]-dimethyl-amine]
9 | 5 to 20 | < 5 | CCOC(=O)N(CC)c1ccc(Cc2ccc(OC)c(-c3cccc(Cl)c3)c2F)cn1 [P-359]
10 | 5 to 20 | < 5 | COc1ccc(Cc2ccc(CN)c(F)c2)c(F)c1-c1cccc(Cl)c1 [P-275]
11 | < 5 | < 5 | CCOc1ccc(Cc2ccc(NC(N)=O)nc2)c(F)c1-c1cccc(Cl)c1 [P-279]
12 | < 5 | < 5 | COc1ccc(Cc2ccc(NC(N)=O)cc2)c(F)c1-c1cccc(C(C)=O)c1 [P-269, [4-(3′-Acetyl-2-fluoro-6-methoxy-biphenyl-3-ylmethyl)-phenyl]urea]
13 | < 5 | < 5 | COc1ccc(Cc2ccc(C(=O)N(C)C)nc2)c(F)c1-c1cccc(Cl)c1 [P-382, 5-(3′-Chloro-2-fluoro-6-methoxy-biphenyl-3-ylmethyl)-pyridine-2-carboxylic acid dimethylamide]
14 | < 5 | < 5 | COc1ccc(COc2ccc(Cl)nc2)c(F)c1-c1cccc(Cl)c1 [P-585]
15 | < 5 | < 5 | COc1ccc(Cc2ccc(CNC(N)=O)c(F)c2)c(F)c1-c1cccc(C(C)=O)c1 [P-330]
16 | 5 to 20 | < 5 | COc1ccc(Cc2cnc(NS(C)(=O)=O)nc2)c(F)c1-c1cccc(Cl)c1 [P-292]
17 | < 5 | < 5 | COc1ccc(Cc2ccc(NS(C)(=O)=O)cc2)c(F)c1-c1cccc(Cl)c1 [P-227]
18 | 5 to 20 | < 5 | COc1ccc(Cc2ccc3nc(N)oc3c2)c(F)c1-c1cccc(Cl)c1 [P-285]
19 | < 5 | < 5 | CCNC(=O)Nc1ccc(Cc2ccc(OC)c(-c3cccc(Cl)c3)c2F)c[n+]1[O-] [P-397, 1-[5-(3′-Chloro-2-fluoro-6-methoxy-biphenyl-3-ylmethyl)-1-oxy-pyridin-2-yl]-3-ethyl-urea]

The remaining lines, values behind:

Row | SMILES | IC50 [1] [µM] | IC50 [2] [µM]
20 | COc1ccc(CN2CCCC2=O)cc1-c1ccccc1 [P-162, 1-(6-Methoxy-biphenyl-3-ylmethyl)-pyrrolidin-2-one] | 5 to 20 | 5 to 20
21 | COc1ccc(Cn2ccccc2=O)cc1-c1cccc([N+](=O)[O-])c1 [P-104, 1-(6-Methoxy-3′-nitro-biphenyl-3-ylmethyl)-1H-pyridin-2-one] | < 5 | < 5
22 | COc1ccc(Cn2cncn2)cc1-c1cccc(OC(F)(F)F)c1 [P-084, 1-(6-Methoxy-3′-trifluoromethoxy-biphenyl-3-ylmethyl)-1H-[1,2,4]triazole] | 5 to 20 | < 5
23 | COc1ccc(CN2C(=O)c3ccncc3C2=O)cc1-c1cccc([N+](=O)[O-])c1 [P-043, 2-(6-Methoxy-3′-nitro-biphenyl-3-ylmethyl)-pyrrolo[3,4-c]pyridine-1,3-dione] | 5 to 20 | < 5
24 | COc1ccc(COc2ccc([N+](=O)[O-])cc2)c(F)c1-c1cccc(Cl)c1 [P-575] | < 5 | 5 to 20
25 | COc1ccc(Cc2ccc[nH]c2=O)c(O)c1-c1cccc(N)c1 [P-185] | 21 to 40 | 5 to 20
26 | COc1ccc(Cc2ccc(NC(=O)CCC(=O)O)cc2)cc1-c1cccc([N+](=O)[O-])c1 [P-122] | 5 to 20 | < 5
27 | COc1ccc(Cc2ccc(CNC(=O)CN(C)C)cc2)c(F)c1-c1cccc([N+](=O)[O-])c1 [P-175] | < 5 | < 5
28 | COc1ccc(COC2=CC(=O)CC2)cc1-c1cccc([N+](=O)[O-])c1 [P-092, 3-(6-Methoxy-3′-nitro-biphenyl-3-ylmethoxy)-cyclopent-2-enone] | < 5 | < 5
29 | COc1ccc(Cn2cncn2)nc1-c1cccc([N+](=O)[O-])c1 [P-024, 3-methoxy-2-(3-nitro-phenyl)-6-[1,2,4]triazol-1-ylmethyl-pyridine] | 21 to 40 | < 5
30 | COc1ccc(Cc2c(C)nn(CC(N)=O)c2C)cc1-c1cccc([N+](=O)[O-])c1 [P-101, 2-[4-(6-Methoxy-3′-nitro-biphenyl-3-ylmethyl)-3,5-dimethyl-pyrazol-1-yl]-acetamide] | < 5 | < 5
31 | COc1ccc(Cc2ccc(=O)[nH]n2)cc1-c1cccc([N+](=O)[O-])c1 [P-009, 6-(6-Methoxy-3′-nitro-biphenyl-3-ylmethyl)-2H-pyridazin-3-one] | < 5 | < 5
32 | COc1ccc(Cc2ccc(N3CCC3)nc2)cc1-c1cccc(Cl)c1 [P-568, 2-azetidin-1-yl-5-(3′-chloro-6-methoxy-biphenyl-3-ylmethyl)-pyridine] | < 5 | < 5
33 | COc1ccc(Cn2cc(-c3ccccn3)cn2)c(F)c1-c1cccc(Cl)c1 [P-527, 2-[1-(3′-Chloro-2-fluoro-6-methoxy-biphenyl-3-ylmethyl)-1H-pyrazol-4-yl]-pyridine] | 5 to 20 | < 5
34 | COc1ccc(CN2CCCC2=O)cc1-c1cccc(Cl)c1 [P-218, 1-(3′-chloro-6-methoxy-biphenyl-3-ylmethyl)-pyrrolidin-2-one] | < 5 | < 5
35 | COc1ccc(CN2CCCC2=O)cc1-c1cccc(-c2nnco2)c1 [P-186] | 21 to 40 | 20 to 40
36 | COc1ccc(CN2CCOC2=O)cc1-c1cccc([N+](=O)[O-])c1 [P-076, 3-(6-Methoxy-3′-nitro-biphenyl-3-ylmethyl)-oxazolidin-2-one] | < 5 | < 5
37 | COc1ccc(Cc2ccc(NC(=O)CN(C)C)cc2)cc1-c1cccc([N+](=O)[O-])c1 [P-144] | < 5 | < 5
38 | COc1ccc(Cc2ccc(OC)c(-c3cccc([N+](=O)[O-])c3)c2O)cn1 [P-125] | < 5 | < 5
39 | COc1ccc(Cc2cccnc2Cl)c(O)c1-c1cccc([N+](=O)[O-])c1 [P-109] | < 5 | < 5
